Here are results for 3 molecules from patent publication US12173029B2, “Antiviral prodrugs, pharmaceutical formulations, and methods” (priority 2020, dated 2024).

Data set [1] relates to SARS-CoV-2 isolate USA-WA1/2020. The experiment in a line: Example 7 SARS-CoV-2 infection in Huh7.5 cells (qRT-PCR). The class given is cell-based. In general terms: In qPCR the cycle at which signal appears reflects the starting amount.
The test system is the same in data set [2]. The experiment in a line: Example 3 SARS-CoV-2 infection in Vero E6 cells (qRT-PCR Spike RNA). The class given is cell-based.
Data set [3] relates to USA WA-01 strain of SARS CoV-2. The experiment in a line: Example 2 anti-coronavirus activity in Vero E6 cells (qPCR spike RNA). The class given is cell-based. The conditions noted are these: Vero C1008, SARS CoV-2 USA WA-01, Vero E6 cells, MOI 0.1, 48 hours. As for the experimental part: Ten thousand Vero E6 cells were seeded in 100 microliters of culture medium in 96 well plates. The following day serial two-fold dilutions of antiviral compounds or the DMSO-containing vehicle were added to each well. The USA WA-01 strain of SARS CoV-2 was added to each well at a multiplicity of infection of 0.1 thirty minutes later. Cells were incubated for 48 hours, washed twice in PBS and lysed with TRIzol. RNA was extracted using Directzol micro RNA columns. RNA was made into cDNA and assayed for the SARS CoV-2 spike protein and for a housekeeping gene (RPLPO) RNA by qPCR. Data represents the average of duplicate wells. Cellular cytotoxicity was also measured in VERO E6 cells. […] Cytotoxicity (CC50) was assessed using a commercially available MTT assay.

Data set [4] can be described thus: Example 2 cellular cytotoxicity in Vero E6 cells (MTT). The conditions noted are these: monkey.
The test system of data set [5] is SARS-CoV-2 isolate USA-WA1/2020. The experiment in a line: Example 7 SARS-CoV-2 infection in PSC-human lung cells (qRT-PCR). The class given is cell-based.
Data set [6] has the same test system. As to the kind of experiment: Example 7 SARS-CoV-2 infection in Vero E6 cells (qRT-PCR). The class given is cell-based. The conditions noted are these: Severe acute respiratory syndrome coronavirus 2, Vero C1008, SARS-CoV-2, Vero E6 cells, MOI 0.01, 48 hours.
Data set [7] shares this test system. The experiment in a line: Example 7 SARS-CoV-2 infection in Caco-2 cells (qRT-PCR). Format: cell-based.
For data set [8] the test system is unchanged. As to the kind of experiment: Example 7 SARS-CoV-2 infection in Calu-3 cells (qRT-PCR). Format: cell-based.
The test system of data set [9] is Human Coronavirus 229E. The class given is cell-based. The conditions noted are these: HCoV-229E in MRC-5 cells, three days, CPE by MTT.
Data set [10] deals with SARS-CoV-2. As to the kind of experiment: Example 6 SARS-CoV-2 infection assay in TMPRSS2-Vero cells (nucleocapsid immunofluorescence). The conditions noted are these: SARS CoV-2, TMPRSS2-Vero cells, MOI 0.01, 32 hours, percent infected cells. Format: cell-based.
The test system of data set [11] is SARS-CoV-2. The experiment in a line: Example 6 SARS-CoV-2 infection assay in Huh7.5 cells (nucleocapsid immunofluorescence). The class given is cell-based. The note with it: SARS CoV-2, Huh7.5 cells, MOI 0.1, 48 hours, percent infected cells.
In data set [12] the test system is VERO E6 cells. As to the kind of experiment: Example 4 generation of remdesivir triphosphate in Vero E6 cells (LC/MS/MS). Format: in vitro ADME, monkey. The note with it: exposure to 1 micromolar drug, up to 48 hours. As for the experimental part:
In this example, Vero E6 cells were plated in 6 well plates at about 3.4×10^5 cells per well in 2 mL of media (DMEM, 10% FBS).
Cells were then incubated at 37° C. for 24 hours. Media was then aspirated and replaced with 2 ml of control media (fresh Dulbecco's Modified Eagle's Medium (DMEM), 10% FBS) or 2 mL of media with drug at a concentration of 1 μM. Cell were incubated with the various drugs for 48 hours. The media was aspirated, the cells rinsed twice with phosphate-buffered saline (PBS), trypsinized for 5 minutes with 1 mL ATV, triturated and removed to a 15 mL centrifuge tube, rinsed with 1 mL PBS, which was also then removed to the 15 mL centrifuge tube, and the cells were triturated again. Cells were counted in a Reichert hemocytometer using two 10 μL samples, and the number of cells in each sample was determined.
Cells were centrifuged at 1200 rpm for 10 minutes, diluent aspirated and the pellet resuspended in 250 μL of methanol/distilled water (70/30) and analyzed by LC/MS/MS. The results, which are depicted at FIG. 3, were in picomoles/10^6 cells and are the average of two or three determinations.

The format of data set [13] is in vivo. The conditions noted are these: Syrian hamsters, sodium salt. Here is the method: ODBG-P-RVn in 0.1M sodium carbonate/bicarbonate buffer, pH 9.0, was administered to Syrian Hamsters by oral gavage every 12 hours for seven days. ODBG-P-RVn was present as the sodium salt.
FIG. 5A and FIG. 5B depict the seven day oral pharmacokinetics in Syrian hamsters. Syrian hamsters were given vehicle or ODBG-P-RVn by oral gavage every 12 hours for 7 days. Groups of 3 animals received vehicle or drug at doses of 16.9 and 13.2 mg/kg. Animals were weighed daily and monitored for clinical signs.
Analytical Methods: ODBG-P-RVn: Hamster plasma samples (10 μL) containing ODBG-P-RVn and K2EDTA as the anticoagulant were added to polypropylene tubes containing water (100 μL), internal standard solution (10 μL; 1,000 ng/mL of ODE-P-RVn in ACN:DMF (1:1, v/v)), and 10 μL of ACN:DMF (1:1, v/v). The solutions were mixed, then acidified with phosphoric acid, 85% w/v:water (1:19, v/v; 10 μL), mixed, then diluted with 200 μL of IPA, mixed, then diluted with 500 μL of water, and mixed. […] The ODBG-P-RVn extracts were analyzed using an Agilent 1200 HPLC system (Agilent, Santa Clara, CA) coupled to an API5500 mass analyzer (SCIEX, Foster City, CA). […]
The solutions were mixed and centrifuged at 16,000 g for five minutes. […] The GS-441524 extracts were analyzed using an Acquity UPLC system (Waters, Milford, MA) coupled to a G2-S QTof mass analyzer (Waters, Milford, MA). […]

Setting [14] is: Severe acute respiratory syndrome coronavirus 2, SARS-CoV-2, Huh7.5 cells, MOI 0.01, 48 hours, qRT-PCR, Example 7.
The mark [15] stands for this setting: Severe acute respiratory syndrome coronavirus 2, Vero C1008, SARS-CoV-2 USA-WA1/2020, Vero E6 cells, MOI 0.01, 48 hours, mean±SD.
[16] abbreviates: Severe acute respiratory syndrome coronavirus 2, SARS-CoV-2, Calu-3 cells, MOI 0.01, 48 hours.

The term EC50 denotes the midpoint of the concentration-response curve. A word on the EC90: it is the point of the concentration-response curve where the effect stands at 90%. The term CC50 denotes the concentration at which the toxic effect on the cells reaches its halfway point. As to `N#C[C@@]1(c2ccc3c(N)ncnn23)O[C@H](CO)[C@@H](O)[C@H]1O` [RVn, 2-C-(4-aminopyrrolo[2,1-f][1,2,4]triazin-7-yl)-2,5-anhydro-D-altrononitrile], the Selectivity is listed as more than 312 in data set [1] (Selectivity index CC50/EC50, Huh7.5 cells); more than 58.8 in data set [2] (Selectivity index, CC50/EC50, Vero E6 cells, Example 3); more than 135 in data set [5] (Selectivity index CC50/EC50, PSC-human lung cells); more than 104 in [7] (Selectivity index CC50/EC50, Caco-2 cells); more than 666 in [8] (Selectivity index CC50/EC50, Calu-3 cells). In addition, the EC50 in data set [1] (setting [14]) turned out to be 320 nM; in data set [2] (setting [15]) it was 1700 nM; in data set [3], 1560 nM; in data set [5] (Severe acute respiratory syndrome coronavirus 2, SARS-CoV-2, PSC-human lung cells, MOI 0.01, 48 hours), 740 nM; in [6], 380 nM; in data set [7] (Severe acute respiratory syndrome coronavirus 2, SARS-CoV-2, Caco-2 cells, MOI 0.01, 48 hours), 960 nM. In [8] (setting [16]), this molecule returned an EC50 of 150 nM. The EC90 stood at 730 nM in data set [1] (setting [14]); 3200 ± 770 nM in [2] (setting [15]); 2690 nM in [3]; 770 nM in data set [6]; 180 nM in data set [8] (setting [16]). For the same molecule, the cytotoxic concentration (CC50) in [4] was more than 50000 nM.

As to “1-O-octadecyl-2-O-benzyl-sn-glycerol-benzyl-phospho-RVn [Compound 16]”, the EC50 in data set [9] is 1500 ± 930 nM; in data set [10], 7440 ± 818 nM; in data set [11], 3540 ± 583 nM. Further, the EC90 came out at 4270 ± 880 nM in [9], 15300 ± 5910 nM in data set [10] and 16400 ± 5980 nM in data set [11].

As to `CCCCCCCCCCCCCCCCCCOC[C@H](COP(=O)(O)OC[C@H]1O[C@@](C#N)(c2ccc3c(N)ncnn23)[C@H](O)[C@@H]1O)OCc1ccccc1` [Compound 15d, 1-O-octadecyl-2-O-benzyl-glyceryl-sn-3-phospho-RVn], the “synthesis of remdesivir triphosphate (RVn-TP)” value in [12] is given as “increased progressively to 48 hours”. In data set [13] (oral gavage every 12 hours for seven days, 16.9 and 13.2 mg/kg), the “tolerability / clinical signs” value was “well tolerated, and no adverse clinical signs were noted”. Further, in [13] (oral gavage), the “time for plasma levels to fall by 50%” value is on record as “about 5 hours”.
